{
  "source": "patent US7615356B2",
  "about": "“Ion channel assay methods” (Vertex Pharmaceuticals (San Diego) LLC, priority 2000, dated 2009)",
  "key": {"[1]": {"molecular_target": "endogenous NaV channels of Chinese Hamster Ovary cells (Nav 1.2a) (Cricetulus griseus, UniProt A0A8C2MK62)", "sequence (A0A8C2MK62 entry or part of it)": "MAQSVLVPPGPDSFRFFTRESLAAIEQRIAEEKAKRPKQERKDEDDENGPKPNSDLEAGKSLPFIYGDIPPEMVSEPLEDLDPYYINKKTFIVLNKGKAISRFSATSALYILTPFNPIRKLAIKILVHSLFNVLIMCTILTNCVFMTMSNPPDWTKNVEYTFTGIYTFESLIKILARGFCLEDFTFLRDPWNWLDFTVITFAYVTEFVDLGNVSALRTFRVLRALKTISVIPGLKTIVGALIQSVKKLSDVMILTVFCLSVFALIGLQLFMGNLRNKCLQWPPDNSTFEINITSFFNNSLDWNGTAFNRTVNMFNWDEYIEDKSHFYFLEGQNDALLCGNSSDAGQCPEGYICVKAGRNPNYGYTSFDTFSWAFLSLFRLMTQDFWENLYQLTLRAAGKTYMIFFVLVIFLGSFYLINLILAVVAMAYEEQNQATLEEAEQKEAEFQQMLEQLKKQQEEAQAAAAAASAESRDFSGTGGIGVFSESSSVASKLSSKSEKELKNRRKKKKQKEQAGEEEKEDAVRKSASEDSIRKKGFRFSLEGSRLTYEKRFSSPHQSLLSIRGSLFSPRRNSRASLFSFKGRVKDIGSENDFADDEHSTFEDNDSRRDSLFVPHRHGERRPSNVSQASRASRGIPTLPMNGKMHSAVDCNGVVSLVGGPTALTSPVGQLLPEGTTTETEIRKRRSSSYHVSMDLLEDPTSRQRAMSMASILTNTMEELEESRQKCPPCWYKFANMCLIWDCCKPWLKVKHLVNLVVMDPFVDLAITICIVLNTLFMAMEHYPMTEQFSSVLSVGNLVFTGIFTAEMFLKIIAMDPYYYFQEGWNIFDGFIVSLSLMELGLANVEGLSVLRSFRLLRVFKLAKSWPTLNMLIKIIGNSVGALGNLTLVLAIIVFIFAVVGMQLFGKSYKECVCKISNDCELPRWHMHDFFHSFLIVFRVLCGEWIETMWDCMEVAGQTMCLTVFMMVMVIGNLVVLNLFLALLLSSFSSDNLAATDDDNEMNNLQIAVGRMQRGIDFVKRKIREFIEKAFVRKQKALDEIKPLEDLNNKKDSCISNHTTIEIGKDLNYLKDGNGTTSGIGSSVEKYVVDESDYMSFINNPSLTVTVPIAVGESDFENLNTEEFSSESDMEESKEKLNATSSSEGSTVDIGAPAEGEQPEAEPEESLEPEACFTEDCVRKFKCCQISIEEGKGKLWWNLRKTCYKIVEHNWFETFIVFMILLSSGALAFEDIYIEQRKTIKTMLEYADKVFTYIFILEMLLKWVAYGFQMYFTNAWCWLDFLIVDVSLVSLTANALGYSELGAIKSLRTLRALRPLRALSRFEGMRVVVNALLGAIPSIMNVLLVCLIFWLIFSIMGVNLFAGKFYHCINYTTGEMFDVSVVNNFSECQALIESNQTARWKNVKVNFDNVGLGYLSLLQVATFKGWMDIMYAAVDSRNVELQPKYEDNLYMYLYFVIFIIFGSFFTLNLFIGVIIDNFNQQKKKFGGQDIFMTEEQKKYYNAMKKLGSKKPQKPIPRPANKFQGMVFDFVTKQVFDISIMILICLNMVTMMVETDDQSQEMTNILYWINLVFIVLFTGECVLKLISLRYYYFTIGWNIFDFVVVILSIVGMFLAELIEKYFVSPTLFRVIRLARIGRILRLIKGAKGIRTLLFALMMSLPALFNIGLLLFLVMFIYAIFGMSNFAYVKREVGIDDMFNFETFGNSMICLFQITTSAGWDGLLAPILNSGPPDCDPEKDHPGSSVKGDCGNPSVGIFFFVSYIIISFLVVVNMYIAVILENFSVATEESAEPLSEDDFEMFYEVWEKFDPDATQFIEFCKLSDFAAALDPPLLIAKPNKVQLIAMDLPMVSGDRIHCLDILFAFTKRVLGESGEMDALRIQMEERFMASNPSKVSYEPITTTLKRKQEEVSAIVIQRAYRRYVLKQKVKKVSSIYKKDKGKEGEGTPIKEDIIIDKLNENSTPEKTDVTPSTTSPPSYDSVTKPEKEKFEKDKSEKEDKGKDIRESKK", "test": "Use-dependent block, repetitive electrical stimulation at 1 Hz, CHO cells", "assay_type": "cell-based"}, "Nav 1.2a": {"molecular_target": "Nav 1.2a (Rattus norvegicus, UniProt P04775, N209D)", "sequence (P04775 whole entry N209D)": "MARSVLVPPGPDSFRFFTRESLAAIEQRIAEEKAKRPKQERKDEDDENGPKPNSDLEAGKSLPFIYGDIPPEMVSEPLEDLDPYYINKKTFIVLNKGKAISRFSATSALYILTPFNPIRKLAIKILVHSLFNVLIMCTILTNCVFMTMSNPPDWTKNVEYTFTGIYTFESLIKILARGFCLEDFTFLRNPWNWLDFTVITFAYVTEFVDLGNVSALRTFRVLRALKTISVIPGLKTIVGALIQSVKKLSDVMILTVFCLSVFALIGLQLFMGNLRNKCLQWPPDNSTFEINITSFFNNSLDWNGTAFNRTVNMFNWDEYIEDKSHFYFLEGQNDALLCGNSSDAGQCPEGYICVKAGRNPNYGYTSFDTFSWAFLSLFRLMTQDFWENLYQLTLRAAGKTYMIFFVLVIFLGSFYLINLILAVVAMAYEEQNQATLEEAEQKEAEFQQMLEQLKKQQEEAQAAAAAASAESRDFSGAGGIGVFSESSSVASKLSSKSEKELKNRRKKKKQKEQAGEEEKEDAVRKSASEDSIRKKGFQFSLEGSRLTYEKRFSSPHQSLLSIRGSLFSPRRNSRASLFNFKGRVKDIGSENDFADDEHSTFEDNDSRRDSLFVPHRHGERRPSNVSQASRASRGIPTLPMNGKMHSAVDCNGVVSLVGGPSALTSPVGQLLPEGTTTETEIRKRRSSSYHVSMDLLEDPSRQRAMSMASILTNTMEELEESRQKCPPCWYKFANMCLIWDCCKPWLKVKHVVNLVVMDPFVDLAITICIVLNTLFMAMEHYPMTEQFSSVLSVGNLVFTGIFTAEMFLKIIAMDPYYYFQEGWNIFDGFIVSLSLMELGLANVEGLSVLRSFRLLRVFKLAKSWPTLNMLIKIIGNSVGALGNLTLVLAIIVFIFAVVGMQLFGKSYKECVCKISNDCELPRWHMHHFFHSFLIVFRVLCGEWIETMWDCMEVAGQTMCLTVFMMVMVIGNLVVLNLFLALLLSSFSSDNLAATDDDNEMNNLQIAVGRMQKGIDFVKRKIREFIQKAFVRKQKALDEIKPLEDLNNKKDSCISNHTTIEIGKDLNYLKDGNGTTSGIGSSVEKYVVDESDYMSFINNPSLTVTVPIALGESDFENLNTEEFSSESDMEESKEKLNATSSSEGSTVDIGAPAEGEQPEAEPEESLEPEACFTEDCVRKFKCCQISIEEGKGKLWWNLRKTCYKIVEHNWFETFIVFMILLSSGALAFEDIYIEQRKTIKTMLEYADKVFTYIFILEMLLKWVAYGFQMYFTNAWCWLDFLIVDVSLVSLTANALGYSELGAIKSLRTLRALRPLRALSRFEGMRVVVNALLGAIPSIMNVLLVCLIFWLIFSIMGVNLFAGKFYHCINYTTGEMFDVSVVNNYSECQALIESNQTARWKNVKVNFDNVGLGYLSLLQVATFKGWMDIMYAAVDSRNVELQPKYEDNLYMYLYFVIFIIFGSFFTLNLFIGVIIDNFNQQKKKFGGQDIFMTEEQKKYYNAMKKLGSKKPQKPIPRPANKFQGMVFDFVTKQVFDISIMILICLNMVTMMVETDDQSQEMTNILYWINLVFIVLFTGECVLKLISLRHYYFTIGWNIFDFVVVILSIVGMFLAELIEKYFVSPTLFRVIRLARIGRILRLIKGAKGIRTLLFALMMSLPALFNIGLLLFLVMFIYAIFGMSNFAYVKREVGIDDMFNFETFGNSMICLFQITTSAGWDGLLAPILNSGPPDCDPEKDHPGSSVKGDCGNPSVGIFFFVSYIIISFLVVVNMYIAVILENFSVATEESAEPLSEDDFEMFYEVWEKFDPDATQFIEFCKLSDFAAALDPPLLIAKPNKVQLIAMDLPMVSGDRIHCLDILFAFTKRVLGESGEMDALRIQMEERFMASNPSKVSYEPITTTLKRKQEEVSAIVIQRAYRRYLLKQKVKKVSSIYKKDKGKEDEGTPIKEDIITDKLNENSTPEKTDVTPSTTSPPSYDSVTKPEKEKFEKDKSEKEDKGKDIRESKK", "conditions": "published; cited from earlier work"}, "[2]": {"molecular_target": "potassium inward rectifier channel IRK1 (Rattus norvegicus, UniProt Q64273)", "sequence (Q64273 whole entry)": "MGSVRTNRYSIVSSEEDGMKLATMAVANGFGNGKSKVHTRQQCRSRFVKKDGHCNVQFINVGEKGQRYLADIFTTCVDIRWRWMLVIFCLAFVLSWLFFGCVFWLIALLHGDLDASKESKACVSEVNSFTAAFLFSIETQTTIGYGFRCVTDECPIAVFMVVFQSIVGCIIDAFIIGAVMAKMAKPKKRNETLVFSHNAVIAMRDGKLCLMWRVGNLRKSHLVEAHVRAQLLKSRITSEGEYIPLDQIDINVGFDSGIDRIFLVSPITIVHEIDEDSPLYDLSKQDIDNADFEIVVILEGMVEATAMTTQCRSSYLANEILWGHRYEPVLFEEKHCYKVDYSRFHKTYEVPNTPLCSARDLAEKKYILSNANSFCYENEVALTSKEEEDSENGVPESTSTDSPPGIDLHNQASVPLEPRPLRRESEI"}, "[3]": {"test_system": "TTX-resistant Nav channels", "conditions": "cited from earlier work"}, "N-type calcium channel": {"molecular_target": "N-type calcium channel (Homo sapiens, UniProt Q00975)", "test": "Hexyl oxonol assay for use-dependent blockers of CaV", "assay_type": "cell-based", "conditions": "5 μM", "method": "Assays can also be developed using fast membrane potential sensors, such as DISBAC6(3) and CC2-DMPE voltage-sensitive FRET probes, to detect use-dependent compounds for voltage-gated Ca targets. The following illustrative example is for an N-type calcium channel using hardware compatible with 96 well plates.\nPrepare a solution of 2× CC2DMPE and DISBAC6(3) by Vortexing together 10 mM CC2DMPE (in DMSO) and 10 mM DISBAC6(3) (in DMSO) with an equivalent volume of 10% pluronic (in DMSO). Vortex in required amount of bath. Each cell plate will require 5 ml of this solution. Wash plate with a plate washer leaving a residual volume of 50 μl. Add 50 μL of 2× CC2DMPE to wells. Resulting concentrations of dyes will be 4 μM CC2-DMPE and 1.25 μM DISBAC6(3). Stain for 30 minutes in the dark at RT. The test compounds are prepared at 2× concentration in extracellular ringer solution and added to wells containing stained cells. Stimulation parameters such as stimulation frequency, pulse duration, stimulation voltage can be easily manipulated to elicit desired responses.\nFIG. 40 illustrates an example of how a use-dependent compound such as mibefradil can be detected using this hexyl assay."}, "[4]": {"test_system": "voltage-activated chloride and potassium channels of wild-type HEK-293 cells"}, "NaV4 sodium channel": {"test_system": "NaV4 sodium channel", "assay_type": "cell-based", "conditions": "HEK-293 NaV4; 33 V/cm, 10 ms/phase biphasic, 15 Hz burst for 1.5 seconds; read-out: estimated EC50 (Hill function fit)", "source_text": "For this experiment, electrical stimulation parameters were E=33 V/cm, 10 ms/phase biphasic stimulation, 15 Hz burst for 1.5 seconds.\nTo determine whether the present method is generally applicable to a wide range of different sodium channels, HEK-293 cells were stably transfected with another voltage dependent sodium channel, hereinafter referred to as NaV4. These cells were transfected, selected and loaded with FRET dyes as described in section VI and Example 8."}, "Nav1.8 [5]": {"molecular_target": "Nav1.8 (UniProt Q9Y5Y9)", "test": "Paired-pulse train stimulation, recovery from block, cells expressing Nav1.8", "conditions": "for IC50: approximate, from previous experiment"}, "[6]": {"test_system": "sodium channels in dorsal root ganglion (DRG) neurons", "test": "Dorsal root ganglion neuron assay, electrical stimulation at different external potassium", "assay_type": "cell-based, rat", "conditions": "before and after addition of 16 mM potassium", "method": "We have developed a dorsal root ganglion (DRG) neuron assay on the electrical stimulation with optical detection platform that allows us to detect and quantify voltage dependent blockers of the sodium channels in these neurons. The DRG neurons were dissociated from neonatal rat pups and stained with FRET voltage sensing dyes. The neurons were then placed in the middle of the well on a 96 well plate and preincubated with varying concentrations of the test compound. Electrical stimulation was applied and the resulting response recorded by the plate reader. Dose response plots were then constructed for each compound tested. Increased levels of potassium were then added to depolarize the neurons and move more of the sodium channels into the inactivated state. […] This estimates the degree of voltage or state dependence for these compounds. […] As shown, the high potassium levels depolarize the cells. The compounds' block is voltage dependent, a type of use-dependent activity. […] This example illustrates also the use of this method with primary neurons."}, "Nav1.8 [7]": {"molecular_target": "Nav1.8 (UniProt Q9Y5Y9)", "test": "Induced spontaneous firing of Nav1.8 expressing cells, high-frequency monophasic pulses", "assay_type": "cell-based"}, "[8]": {"molecular_target": "voltage dependent sodium channel (NaV1) endogenously expressed in wild type CHO cells (Cricetulus griseus, UniProt A0A8C2MK62)", "sequence (A0A8C2MK62 1-2006)": "as the sequence (A0A8C2MK62 entry or part of it) above"}, "HL5 cardiac muscle cells": {"test_system": "HL5 cardiac muscle cells", "assay_type": "cell-based"}, "[9]": {"conditions": "1 Hz stimulation, 1st peak response"}, "[10]": {"conditions": "1 Hz stimulation, 20th peak response"}, "[11]": {"conditions": "read-out: IC50 @ 1st peak, 1 Hz stimulation, 1st peak response"}, "[12]": {"conditions": "read-out: IC50 @ 20th peak, 1 Hz stimulation, 20th peak response"}},
  "note": "Entries after “also recorded” stand apart in the source; their conditions may differ. Read-outs that look alike come from different tables or passages of the source.",
  "data": [
    {"smiles": "Cc1cccc(C)c1OCC(C)N", "note": "(centres unmarked) [mexiletine]", "values": [
      {"measurement": "Hill coeff. @ 1st peak", "setting": "[1]", "result": 3.07},
      {"measurement": "Hill coeff. @ 20th peak", "setting": "[1]", "result": 0.98},
      {"measurement": "UDI (1 Hz), ratio of IC50(1st response) over IC50(20th response)", "setting": "[1]", "result": 2.59},
      {"measurement": "IC50", "setting": "[1]; read-out: IC50 @ 1st peak", "result": "58.1 ± 11", "unit": "µM"},
      {"measurement": "IC50", "setting": "[1]; read-out: IC50 @ 20th peak", "result": "22.5 ± 5.31", "unit": "µM"},
      {"measurement": "IC50", "setting": "Nav 1.2a", "result": "21 to 533", "unit": "µM"}
    ]},
    {"smiles": "CN(C)CCC=C1c2ccccc2CCc2ccccc21", "note": "[amitriptyline]", "values": [
      {"measurement": "Hill coeff. @ 1st peak", "setting": "[1]", "result": 2.65},
      {"measurement": "Hill coeff. @ 20th peak", "setting": "[1]", "result": 1.07},
      {"measurement": "UDI (1 Hz), ratio of IC50(1st response) over IC50(20th response)", "setting": "[1]", "result": 3.24},
      {"measurement": "IC50", "setting": "[1]; read-out: IC50 @ 1st peak", "result": "5.19 ± 1.57", "unit": "µM"},
      {"measurement": "IC50", "setting": "[1]; read-out: IC50 @ 20th peak", "result": "1.6 ± 0.38", "unit": "µM"},
      {"measurement": "IC50", "setting": "Nav 1.2a", "result": 5.5, "unit": "µM"}
    ]},
    {"smiles": "[Ba+2].[Cl-].[Cl-]", "note": "[barium chloride]", "values": [
      {"measurement": "voltage change during stimulation with block", "setting": "[2]", "result": "no detectable voltage change"}
    ]},
    {"smiles": "CCCCN1CCCCC1C(=O)Nc1c(C)cccc1C", "note": "(centres unmarked) [Bupivacaine]", "values": [
      {"measurement": "firing rate in neuron slice preparation", "setting": "[3]", "result": "slower firing rate"}
    ]},
    {"smiles": "CCCCOc1cc(C(=O)NCCN(CC)CC)c2ccccc2n1", "note": "[dibucaine]", "values": [
      {"measurement": "UDI (1 Hz), ratio of IC50(1st response) over IC50(20th response)", "setting": "[1]; 1 Hz for 20 seconds", "result": 2.36},
      {"measurement": "Hill coeff. @ 1st peak", "setting": "[1]; [9]", "result": 2.35},
      {"measurement": "Hill coeff. @ 20th peak", "setting": "[1]; [10]", "result": 1.19},
      {"measurement": "IC50", "setting": "[1]; [11]", "result": "1.19 ± 0.22", "unit": "µM"},
      {"measurement": "IC50", "setting": "[1]; [12]", "result": "0.51 ± 0.11", "unit": "µM"}
    ]},
    {"smiles": "COCC(=O)O[C@]1(CCN(C)CCCc2nc3ccccc3[nH]2)CCc2cc(F)ccc2[C@@H]1C(C)C", "note": "[mibefradil]", "values": [
      {"measurement": "change in response lineshape", "setting": "N-type calcium channel", "result": "use-dependent block"}
    ]},
    {"smiles": "CC[N+](CC)(CC)CC", "note": "[TEA, Tetraethylammonium]", "values": [
      {"measurement": "effect on the negative voltage response", "setting": "[4]", "result": "partially blocks"}
    ]},
    {"smiles": "CCCCNc1ccc(C(=O)OCCN(C)C)cc1", "note": "[tetracaine]", "values": [
      {"measurement": "UDI (1 Hz), ratio of IC50(1st response) over IC50(20th response)", "setting": "[1]; 1 Hz for 20 seconds", "result": 8.40},
      {"measurement": "use-dependent block of endogenous NaV channels", "setting": "[1]; 1 Hz for 20 seconds, in words", "result": "decreased ratio of last peak response over first peak response and more additional block than TTX and most"},
      {"measurement": "Hill coeff. @ 1st peak", "setting": "[1]; [9]", "result": 1.81},
      {"measurement": "Hill coeff. @ 20th peak", "setting": "[1]; [10]", "result": 0.66},
      {"measurement": "IC50", "setting": "[1]; [11]", "result": "2.77 ± 1.23", "unit": "µM"},
      {"measurement": "IC50", "setting": "[1]; [12]", "result": "0.33 ± 0.2", "unit": "µM"},
      {"measurement": "EC50", "setting": "NaV4 sodium channel", "result": 35, "unit": "µM"},
      {"measurement": "time to recover from use-dependent block", "setting": "Nav1.8 [5]; 4 μM", "result": "approximately 1000 ms"},
      {"measurement": "IC50", "setting": "Nav1.8 [5]", "result": "~4", "unit": "µM"},
      {"measurement": "shift of dose response curve after elevated potassium", "setting": "[6]", "result": "leftward shifted"},
      {"measurement": "EC50", "setting": "NaV3 sodium channel; read-out: EC50 (fit to dose-response curve), HEK-293 NaV3, 33 V/cm, 10 ms/phase biphasic, 15 Hz burst for 1.5 seconds", "result": 11, "unit": "µM"}
    ]},
    {"smiles": "CCN(CC)CC(=O)Nc1c(C)cccc1C", "note": "[Lidocaine]", "values": [
      {"measurement": "use-dependent block of endogenous NaV channels", "setting": "[1]", "result": "only minor or no use-dependent block"},
      {"measurement": "firing rate in neuron slice preparation", "setting": "[3]", "result": "slower firing rate"},
      {"measurement": "effect on induced spontaneous firing", "setting": "Nav1.8 [7]", "result": "gradually increased the interspike interval"}
    ]},
    {"smiles": "Nc1nnc(-c2cccc(Cl)c2Cl)c(N)n1", "note": "[lamotrigine]", "values": [
      {"measurement": "IC50", "setting": "Nav1.8 [5]", "result": "~50", "unit": "µM"},
      {"measurement": "shift of dose response curve after elevated potassium", "setting": "[6]", "result": "leftward shifted"},
      {"measurement": "effect on induced spontaneous firing", "setting": "Nav1.8 [7]", "result": "gradually increased the interspike interval"}
    ]},
    {"smiles": "COC(=O)[C@@H]1[C@H]2C[C@H]3c4[nH]c5ccccc5c4CCN3C[C@@H]2CC[C@@H]1O", "note": "[yohimbine]", "values": [
      {"measurement": "UDI (1 Hz), ratio of IC50(1st response) over IC50(20th response)", "setting": "[1]; 1 Hz for 20 seconds", "result": 5.67},
      {"measurement": "Hill coeff. @ 1st peak", "setting": "[1]; [9]", "result": 2.05},
      {"measurement": "IC50", "setting": "[1]; 1 Hz stimulation, 1st peak response, read-out: IC50 @ 1st peak", "result": "26.7 ± 7.26", "unit": "µM"},
      {"measurement": "Hill coeff. @ 20th peak", "setting": "[1]; [10]", "result": 0.99},
      {"measurement": "IC50", "setting": "[1]; 1 Hz stimulation, 20th peak response, read-out: IC50 @ 20th peak", "result": "4.7 ± 1.94", "unit": "µM"}
    ]},
    {"smiles": "NC1=N[C@H](O)[C@H]2[C@H]3O[C@]4(O)O[C@@H]([C@@H](O)[C@@]2(N1)[C@@H]4O)[C@]3(O)CO", "note": "[TTX, tetrodotoxin]", "values": [
      {"measurement": "use-dependent block of endogenous NaV channels", "setting": "[1]", "result": "only minor or no use-dependent block; also recorded: least use-dependent"},
      {"measurement": "Hill coefficient", "setting": "[8]", "result": 1.47},
      {"measurement": "block of the effect of electrical stimulation", "setting": "[8]", "result": "completely block"},
      {"measurement": "EC50", "setting": "[8]; read-out: EC50 (Hill function fit to dose response)", "result": 0.009, "unit": "µM"},
      {"measurement": "effect on the positive response", "setting": "HL5 cardiac muscle cells", "result": "partially blocks"},
      {"measurement": "sustained signal above 50 V/cm", "setting": "HL5 cardiac muscle cells", "result": "unaffected"},
      {"measurement": "EC50", "setting": "NaV3 sodium channel; read-out: EC50 (Hill function fit)", "result": 0.025, "unit": "µM"}
    ]}
  ]
}
